Measured values: PubChem BioAssay (NCI)
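In this assay, cells in 96-well plates receive the compound at five concentrations for 48 hours. Endpoints are linearly interpolated between the surrounding concentrations. Abbreviation: GI50, concentration required for 50% inhibition of growth. At the TGI there is no net growth.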

Key:
Assay in all cases: NCI-60 cell line screen, 48 h
HCT-15 colon = test system: HCT-15 colon
TK-10 renal = test system: TK-10 renal
OVCAR-8 ovarian = test system: OVCAR-8 ovarian
A549 NSCLC = test system: A549 NSCLC
A498 renal = test system: A498 renal
COLO 205 colon = test system: COLO 205 colon
PC-3 prostate = test system: PC-3 prostate
LOX IMVI melanoma = test system: LOX IMVI melanoma
SK-MEL-5 melanoma = test system: SK-MEL-5 melanoma
IGROV1 ovarian = test system: IGROV1 ovarian
NCI/ADR-RES ovarian = test system: NCI/ADR-RES ovarian
OVCAR-4 ovarian = test system: OVCAR-4 ovarian
KM12 colon = test system: KM12 colon
786-0 renal = test system: 786-0 renal
RXF 393 renal = test system: RXF 393 renal
SF-295 CNS = test system: SF-295 CNS
SNB-75 CNS = test system: SNB-75 CNS
NCI-H226 lung = test system: NCI-H226 lung
CAKI-1 renal = test system: CAKI-1 renal
MDA-MB-231 breast = test system: MDA-MB-231 breast
NCI-H460 lung = test system: NCI-H460 lung
DU-145 prostate = test system: DU-145 prostate
MDA-MB-435 = test system: MDA-MB-435
RPMI-8226 leukemia = test system: RPMI-8226 leukemia
SF-539 CNS = test system: SF-539 CNS
UACC-257 melanoma = test system: UACC-257 melanoma
HS 578T breast = test system: HS 578T breast
HCT-116 colon = test system: HCT-116 colon
OVCAR-3 ovarian = test system: OVCAR-3 ovarian
U251 CNS = test system: U251 CNS
BT-549 breast = test system: BT-549 breast
NCI-H23 lung = test system: NCI-H23 lung
UO-31 renal = test system: UO-31 renal
K-562 leukemia = test system: K-562 leukemia
HT29 colon = test system: HT29 colon
HL-60(TB) leukemia = test system: HL-60(TB) leukemia
OVCAR-5 ovarian = test system: OVCAR-5 ovarian
SK-OV-3 ovarian = test system: SK-OV-3 ovarian
SN12C renal = test system: SN12C renal
SR leukemia = test system: SR leukemia
MOLT-4 leukemia = test system: MOLT-4 leukemia
HCC-2998 colon = test system: HCC-2998 colon
HOP-92 NSCLC = test system: HOP-92 NSCLC
MALME-3M melanoma = test system: MALME-3M melanoma
MCF7 breast = test system: MCF7 breast
UACC-62 melanoma = test system: UACC-62 melanoma
SF-268 CNS = test system: SF-268 CNS
HOP-62 NSCLC = test system: HOP-62 NSCLC
ACHN renal = test system: ACHN renal
T-47D breast = test system: T-47D breast
SW-620 colon = test system: SW-620 colon
NCI-H522 lung = test system: NCI-H522 lung
SNB-19 CNS = test system: SNB-19 CNS
CCRF-CEM leukemia = test system: CCRF-CEM leukemia
SK-MEL-2 melanoma = test system: SK-MEL-2 melanoma
SK-MEL-28 melanoma = test system: SK-MEL-28 melanoma
M14 melanoma = test system: M14 melanoma

Work on CCCCCOC(=O)c1c(C)[nH]c(/C=C2\N=C(c3ccc[nH]3)C=C2OC)c1C yielded a GI50 (HCT-15 colon) of 26.4 nM, a TGI (HCT-15 colon) of 1400 nM and a GI50 (TK-10 renal) of 47 nM. It also gave a TGI (TK-10 renal) of 1720 nM, a GI50 (OVCAR-8 ovarian) of 37.3 nM and a TGI (OVCAR-8 ovarian) of 1180 nM. For the same compound, the GI50 (A549 NSCLC) was 29.3 nM, the TGI (A549 NSCLC) was 184 nM and the GI50 (A498 renal) was 124 nM. It also gave a TGI (A498 renal) of 1020 nM, a GI50 (COLO 205 colon) of 33.1 nM and a TGI (COLO 205 colon) of 1040 nM. The GI50 (PC-3 prostate) was 21.2 nM, the TGI (PC-3 prostate) was 3270 nM and the GI50 (LOX IMVI melanoma) was 11.5 nM. It also gave a TGI (LOX IMVI melanoma) of 25 nM, a GI50 (SK-MEL-5 melanoma) of 23.4 nM and a TGI (SK-MEL-5 melanoma) of 72.6 nM. It also gave a GI50 (IGROV1 ovarian) of 49.4 nM, a TGI (IGROV1 ovarian) of 1520 nM and a GI50 (NCI/ADR-RES ovarian) of 39.1 nM. For the same compound, the TGI (NCI/ADR-RES ovarian) was 1330 nM, the GI50 (OVCAR-4 ovarian) was 55.9 nM and the TGI (OVCAR-4 ovarian) was 2390 nM. The GI50 (KM12 colon) was 30.1 nM, the TGI (KM12 colon) was 1540 nM and the GI50 (786-0 renal) was 46.8 nM. It also gave a TGI (786-0 renal) of 397 nM, a GI50 (RXF 393 renal) of 66.4 nM and a TGI (RXF 393 renal) of 900 nM. It also gave a GI50 (SF-295 CNS) of 96.6 nM, a TGI (SF-295 CNS) of 544 nM and a GI50 (SNB-75 CNS) of 42.9 nM. It also gave a TGI (SNB-75 CNS) of 619 nM, a GI50 (NCI-H226 lung) of 222 nM and a TGI (NCI-H226 lung) of 2130 nM. For the same compound, the GI50 (CAKI-1 renal) was 33.5 nM, the TGI (CAKI-1 renal) was 335 nM and the GI50 (MDA-MB-231 breast) was < 16.2 nM. The TGI (MDA-MB-231 breast) was 216 nM, the GI50 (NCI-H460 lung) was 30.9 nM and the TGI (NCI-H460 lung) was 1470 nM. The GI50 (DU-145 prostate) was 37.1 nM, the TGI (DU-145 prostate) was 1680 nM and the GI50 (MDA-MB-435) was 34.8 nM. The TGI (MDA-MB-435) was 734 nM, the GI50 (RPMI-8226 leukemia) was 28 nM and the TGI (RPMI-8226 leukemia) was 240 nM. The GI50 (SF-539 CNS) was 30.6 nM, the TGI (SF-539 CNS) was 725 nM and the GI50 (UACC-257 melanoma) was 95.3 nM. For the same compound, the TGI (UACC-257 melanoma) was 1280 nM, the GI50 (HS 578T breast) was 21.1 nM and the TGI (HS 578T breast) was 172 nM. It also gave a GI50 (HCT-116 colon) of 19.3 nM, a TGI (HCT-116 colon) of 349 nM and a GI50 (OVCAR-3 ovarian) of 42.3 nM. For the same compound, the TGI (OVCAR-3 ovarian) was 615 nM, the GI50 (U251 CNS) was 21.9 nM and the TGI (U251 CNS) was 461 nM. The GI50 (BT-549 breast) was 46.9 nM, the TGI (BT-549 breast) was 1100 nM and the GI50 (NCI-H23 lung) was 57 nM. It also gave a TGI (NCI-H23 lung) of 1470 nM, a GI50 (UO-31 renal) of 21 nM and a TGI (UO-31 renal) of 68.9 nM. For the same compound, the GI50 (K-562 leukemia) was 42.1 nM, the TGI (K-562 leukemia) was 1250 nM and the GI50 (HT29 colon) was 15.4 nM. It also gave a TGI (HT29 colon) of 1340 nM, a GI50 (HL-60(TB) leukemia) of 26.3 nM and a TGI (HL-60(TB) leukemia) of 281 nM. For the same compound, the GI50 (OVCAR-5 ovarian) was 19.1 nM, the TGI (OVCAR-5 ovarian) was 1210 nM and the GI50 (SK-OV-3 ovarian) was 209 nM. It also gave a TGI (SK-OV-3 ovarian) of 2380 nM, a GI50 (SN12C renal) of 48.2 nM and a TGI (SN12C renal) of 1730 nM. For the same compound, the GI50 (SR leukemia) was < 10.7 nM, the TGI (SR leukemia) was 40.3 nM and the GI50 (MOLT-4 leukemia) was 26.5 nM. The TGI (MOLT-4 leukemia) was 1430 nM, the GI50 (HCC-2998 colon) was 28.5 nM and the TGI (HCC-2998 colon) was 1390 nM. The GI50 (HOP-92 NSCLC) was 21.4 nM, the TGI (HOP-92 NSCLC) was 116 nM and the GI50 (MALME-3M melanoma) was 320 nM. It also gave a TGI (MALME-3M melanoma) of 1970 nM, a GI50 (MCF7 breast) of 45.1 nM and a TGI (MCF7 breast) of 1140 nM. For the same compound, the GI50 (UACC-62 melanoma) was 21.3 nM, the TGI (UACC-62 melanoma) was 49.1 nM and the GI50 (SF-268 CNS) was 30.2 nM. The TGI (SF-268 CNS) was 1870 nM, the GI50 (HOP-62 NSCLC) was 43.6 nM and the TGI (HOP-62 NSCLC) was 937 nM. It also gave a GI50 (ACHN renal) of 39.6 nM, a TGI (ACHN renal) of 1210 nM and a GI50 (T-47D breast) of 36.9 nM. For the same compound, the TGI (T-47D breast) was 1370 nM, the GI50 (SW-620 colon) was 30.8 nM and the TGI (SW-620 colon) was 1280 nM. The GI50 (NCI-H522 lung) was 39.2 nM, the TGI (NCI-H522 lung) was 1270 nM and the GI50 (SNB-19 CNS) was 317 nM. For the same compound, the TGI (SNB-19 CNS) was 8400 nM, the GI50 (CCRF-CEM leukemia) was 19.4 nM and the TGI (CCRF-CEM leukemia) was 1990 nM. It also gave a GI50 (SK-MEL-2 melanoma) of 22.2 nM, a TGI (SK-MEL-2 melanoma) of 68.1 nM and a GI50 (SK-MEL-28 melanoma) of 129 nM. For the same compound, the TGI (SK-MEL-28 melanoma) was 1250 nM, the GI50 (M14 melanoma) was 20.4 nM and the TGI (M14 melanoma) was 48.1 nM.
